Experimental data as given in patent US7658941B2, “Warming and nonirritating lubricant compositions and method of comparing irritation” (Johnson & Johnson Consumer Companies, Inc., priority 2002, dated 2010).

Columns and labels:
[1] = Generation of warmth by mixing equal quantity with water; type: physicochemical; conditions: for Actual Temperature (° F.) / Rise in Temperature (° F.) (Expected Minus Actual): 20 ml mixed with 20 ml of water for two minutes
Protocol: The temperature of the product and that of water were recorded before water was added to the product. After the addition of water the mixture was mixed for two minutes and the actual temperature was recorded. Glycerin, Propylene Glycol and Honey are the ingredients in Composition 1. It is clear from Table 1 that when mixed with water the temperature of the mixture rises by 9.0° F for Glycerin, 13.5° F. for Propylene Glycol, 17.0° F. for Polyethylene Glycol 400 and 12.5° F. for composition Example 1 of this invention.
Calculated Rise in Temperature: In order to determine the expected rise in temperature from each composition, the percentage of each component in such composition was multiplied by the temperature increase generated by such component alone to obtain its expected contribution to the temperature increase. These values were added together to calculate the total expected temperature rise. These values were then compared with the actual temperature rise generated by each composition. For example, the calculated rise in temperature generated by the “K-Y Warming®”, composition in the table above was found as follows and compared with the actual temperature rise to determine the unexpectedly higher generation of warmth of the composition:
Compositions 10, 11 and 12 were tested in accordance with the following procedure to determine the extent to which said compositions generate warmth upon mixture with water. Data was generated by mixing 20 ml of each composition with 20 ml of water. The temperature of the composition and that of water were recorded before water was added to the composition After the addition of water the contents were mixed for two minutes and the actual temperature was recorded.

[2] = test system: epithelial cells derived from human skin; type: cell-based
Protocol: The method designated as EpiDerm™ Skin Model assay uses the epithelial cells derived from human skin as target cells and is commercially available from the MatTek Corporation. […] The test materials are applied directly to the epithelial cell culture surface. […] The toxicity of the test material is evaluated on the basis of relative tissue viability vs time. The actual Tissue Viability is determined by NAD(P)H-dependent microsomal enzyme reduction of MTT in control and test article treated cultures. The negative control used in this assay was deionized water and the positive control was Triton X-100. The exposed cell cultures were incubated for 4, 8, 16 and 24 hours and assayed for reduction of MTT. […] Relative irritation in this assay is expressed by the percent survival rate of epiderm cells over a period of 24 hours. Products with higher relative survival rates are less toxic or less irritating while the ones with lower survival rates are more toxic or irritating.
The data is plotted as % Viable Cells vs the Exposure Time ranging from 4 to 24 hours.

Row | Compound | Actual Temperature (° F.) [1] [° F.] | Rise in Temperature (° F.) (Expected Minus Actual) [1] | expected contribution of component to the temperature increase ([1]; in K-Y Warming (Composition 1)) | expected contribution of component to the temperature increase ([1]; in Composition 10) | % viable cells [2] [%]
1 | OCC(O)CO [Glycerin] | 79.0 | 9.0 | 4.05 |  | 
2 | CCCCCCCCCCCCCC(=O)OC(C)C [Isopropyl Myristate] | 75.2 | 0.7 |  |  | 
3 | CC(O)CO (stereo not drawn) [Propylene Glycol] | 85.2 | 13.5 | 6.75 | 5.13 | 
4 | Polysorbate 60 | 83.1 | 10.6 |  |  | 
5 | Triton X-100 |  |  |  |  | 22.4
